{"source": "PubChem BioAssay (NCI)", "test_in_all_cases": "DTP human tumour cell line panel, 48 h", "key": {"NCI-H23 lung": {"test_system": "NCI-H23 lung"}, "NCI-H522 lung": {"test_system": "NCI-H522 lung"}, "UACC-257 melanoma": {"test_system": "UACC-257 melanoma"}, "MALME-3M melanoma": {"test_system": "MALME-3M melanoma"}, "RPMI-8226 leukemia": {"test_system": "RPMI-8226 leukemia"}, "HCT-116 colon": {"test_system": "HCT-116 colon"}, "SR leukemia": {"test_system": "SR leukemia"}, "SK-MEL-5 melanoma": {"test_system": "SK-MEL-5 melanoma"}, "MDA-MB-435": {"test_system": "MDA-MB-435"}, "M19-MEL melanoma": {"test_system": "M19-MEL melanoma"}, "SF-268 CNS": {"test_system": "SF-268 CNS"}}, "note": "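Following 48 hours of exposure in 96-well plates, responses at five concentrations were used to interpolate endpoints linearly. Abbreviation: GI50, concentration required for 50% inhibition of growth. TGI denotes the concentration required for complete inhibition of growth.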"}
{"smiles": "COc1cc(C(C)O)c(S(=O)(=O)CC(C)O)nn1", "note": "(stereo not given)", "values": [{"measurement": "TGI", "setting": "NCI-H23 lung", "value": "> 100", "unit": "µM"}, {"measurement": "TGI", "setting": "NCI-H522 lung", "value": "> 100", "unit": "µM"}, {"measurement": "TGI", "setting": "UACC-257 melanoma", "value": "> 100", "unit": "µM"}, {"measurement": "TGI", "setting": "MALME-3M melanoma", "value": "> 100", "unit": "µM"}, {"measurement": "TGI", "setting": "RPMI-8226 leukemia", "value": "> 100", "unit": "µM"}, {"measurement": "TGI", "setting": "HCT-116 colon", "value": "> 100", "unit": "µM"}, {"measurement": "TGI", "setting": "SR leukemia", "value": "> 100", "unit": "µM"}, {"measurement": "TGI", "setting": "SK-MEL-5 melanoma", "value": "> 100", "unit": "µM"}, {"measurement": "TGI", "setting": "MDA-MB-435", "value": "> 100", "unit": "µM"}]}
{"smiles": "Cc1c2ccncc2cc2c1[nH]c1ccccc12", "values": [{"measurement": "TGI", "setting": "NCI-H23 lung", "value": 15.9, "unit": "µM"}, {"measurement": "TGI", "setting": "NCI-H522 lung", "value": 18.9, "unit": "µM"}, {"measurement": "TGI", "setting": "UACC-257 melanoma", "value": 13.5, "unit": "µM"}, {"measurement": "TGI", "setting": "MALME-3M melanoma", "value": 20.5, "unit": "µM"}, {"measurement": "TGI", "setting": "RPMI-8226 leukemia", "value": 8.7, "unit": "µM"}, {"measurement": "TGI", "setting": "HCT-116 colon", "value": 7.12, "unit": "µM"}, {"measurement": "TGI", "setting": "M19-MEL melanoma", "value": 10.9, "unit": "µM"}, {"measurement": "TGI", "setting": "SK-MEL-5 melanoma", "value": 11.2, "unit": "µM"}, {"measurement": "TGI", "setting": "SF-268 CNS", "value": 32.3, "unit": "µM"}]}
{"smiles": "CC(=O)OCC1OC(n2cc(F)c(=O)[nH]c2=O)C(NC(=O)OCc2ccccc2)C(OC(C)=O)C1OC(C)=O", "note": "(stereo not given)", "values": [{"measurement": "TGI", "setting": "NCI-H23 lung", "value": "> 100", "unit": "µM"}, {"measurement": "TGI", "setting": "NCI-H522 lung", "value": "> 100", "unit": "µM"}, {"measurement": "TGI", "setting": "UACC-257 melanoma", "value": "> 100", "unit": "µM"}, {"measurement": "TGI", "setting": "MALME-3M melanoma", "value": "> 100", "unit": "µM"}, {"measurement": "TGI", "setting": "RPMI-8226 leukemia", "value": "> 100", "unit": "µM"}, {"measurement": "TGI", "setting": "HCT-116 colon", "value": "> 100", "unit": "µM"}, {"measurement": "TGI", "setting": "M19-MEL melanoma", "value": "> 100", "unit": "µM"}, {"measurement": "TGI", "setting": "SK-MEL-5 melanoma", "value": "> 100", "unit": "µM"}, {"measurement": "TGI", "setting": "SF-268 CNS", "value": "> 100", "unit": "µM"}]}
{"smiles": "O=C(N/N=C/c1cc(Cl)cc(Cl)c1[O-])c1ccccc1O.O=C(N/N=C/c1cc(Cl)cc(Cl)c1[O-])c1ccccc1O.[Co+2]", "values": [{"measurement": "GI50", "setting": "NCI-H23 lung", "value": 0.814, "unit": "µM"}, {"measurement": "TGI", "setting": "NCI-H23 lung", "value": 5.47, "unit": "µM"}, {"measurement": "TGI", "setting": "NCI-H522 lung", "value": 1.63, "unit": "µM"}, {"measurement": "TGI", "setting": "UACC-257 melanoma", "value": 14.6, "unit": "µM"}, {"measurement": "GI50", "setting": "MALME-3M melanoma", "value": 2.19, "unit": "µM"}, {"measurement": "TGI", "setting": "MALME-3M melanoma", "value": 16, "unit": "µM"}, {"measurement": "GI50", "setting": "HCT-116 colon", "value": 0.552, "unit": "µM"}, {"measurement": "TGI", "setting": "HCT-116 colon", "value": 14, "unit": "µM"}, {"measurement": "TGI", "setting": "SR leukemia", "value": 0.532, "unit": "µM"}, {"measurement": "TGI", "setting": "SK-MEL-5 melanoma", "value": 2.53, "unit": "µM"}, {"measurement": "TGI", "setting": "SF-268 CNS", "value": 21.2, "unit": "µM"}]}
{"smiles": "CCP(=O)(CC)C(Cl)Cl", "values": [{"measurement": "TGI", "setting": "NCI-H23 lung", "value": "> 100", "unit": "µM"}, {"measurement": "TGI", "setting": "NCI-H522 lung", "value": "> 100", "unit": "µM"}, {"measurement": "TGI", "setting": "UACC-257 melanoma", "value": "> 100", "unit": "µM"}, {"measurement": "TGI", "setting": "RPMI-8226 leukemia", "value": "> 100", "unit": "µM"}, {"measurement": "TGI", "setting": "HCT-116 colon", "value": "> 100", "unit": "µM"}, {"measurement": "TGI", "setting": "SR leukemia", "value": "> 100", "unit": "µM"}, {"measurement": "TGI", "setting": "SK-MEL-5 melanoma", "value": "> 100", "unit": "µM"}, {"measurement": "TGI", "setting": "MDA-MB-435", "value": "> 100", "unit": "µM"}]}
{"smiles": "O=C1CC2CC3OC3[C@H]3c4cc5c(cc4C(=O)N1C23)OCO5", "note": "(stereo not given in full)", "values": [{"measurement": "TGI", "setting": "NCI-H522 lung", "value": "> 100", "unit": "µM"}, {"measurement": "TGI", "setting": "MALME-3M melanoma", "value": "> 100", "unit": "µM"}, {"measurement": "TGI", "setting": "RPMI-8226 leukemia", "value": "> 100", "unit": "µM"}, {"measurement": "TGI", "setting": "HCT-116 colon", "value": "> 100", "unit": "µM"}, {"measurement": "TGI", "setting": "SR leukemia", "value": "> 100", "unit": "µM"}, {"measurement": "TGI", "setting": "M19-MEL melanoma", "value": "> 100", "unit": "µM"}, {"measurement": "TGI", "setting": "SF-268 CNS", "value": "> 100", "unit": "µM"}]}
{"smiles": "Nc1[nH]nc(Nc2ccc(Cl)cc2)c1P(=O)(c1ccccc1)c1ccccc1", "values": [{"measurement": "TGI", "setting": "NCI-H23 lung", "value": "> 100", "unit": "µM"}, {"measurement": "TGI", "setting": "NCI-H522 lung", "value": 48.5, "unit": "µM"}, {"measurement": "TGI", "setting": "UACC-257 melanoma", "value": "> 100", "unit": "µM"}, {"measurement": "TGI", "setting": "MALME-3M melanoma", "value": 47.9, "unit": "µM"}, {"measurement": "TGI", "setting": "RPMI-8226 leukemia", "value": "> 100", "unit": "µM"}, {"measurement": "TGI", "setting": "SR leukemia", "value": "> 100", "unit": "µM"}, {"measurement": "TGI", "setting": "SK-MEL-5 melanoma", "value": 67.7, "unit": "µM"}, {"measurement": "TGI", "setting": "SF-268 CNS", "value": 33.8, "unit": "µM"}, {"measurement": "TGI", "setting": "MDA-MB-435", "value": 42.8, "unit": "µM"}]}
{"smiles": "CC(=O)c1c(C)nc(SSc2nc(C)c(C(C)=O)c(-c3ccc(Cl)cc3)c2C#N)c(C#N)c1-c1ccc(Cl)cc1", "values": [{"measurement": "GI50", "setting": "NCI-H23 lung", "value": 67.4, "unit": "µg/mL"}, {"measurement": "TGI", "setting": "NCI-H23 lung", "value": "> 150", "unit": "µg/mL"}, {"measurement": "GI50", "setting": "UACC-257 melanoma", "value": "> 150", "unit": "µg/mL"}, {"measurement": "TGI", "setting": "UACC-257 melanoma", "value": "> 150", "unit": "µg/mL"}, {"measurement": "GI50", "setting": "MALME-3M melanoma", "value": 50.9, "unit": "µg/mL"}, {"measurement": "TGI", "setting": "MALME-3M melanoma", "value": "> 150", "unit": "µg/mL"}, {"measurement": "GI50", "setting": "RPMI-8226 leukemia", "value": "> 150", "unit": "µg/mL"}, {"measurement": "TGI", "setting": "RPMI-8226 leukemia", "value": "> 150", "unit": "µg/mL"}, {"measurement": "GI50", "setting": "HCT-116 colon", "value": 94.4, "unit": "µg/mL"}, {"measurement": "TGI", "setting": "HCT-116 colon", "value": "> 150", "unit": "µg/mL"}, {"measurement": "GI50", "setting": "SR leukemia", "value": "> 150", "unit": "µg/mL"}, {"measurement": "TGI", "setting": "SR leukemia", "value": "> 150", "unit": "µg/mL"}, {"measurement": "GI50", "setting": "SK-MEL-5 melanoma", "value": 61.7, "unit": "µg/mL"}, {"measurement": "TGI", "setting": "SK-MEL-5 melanoma", "value": "> 150", "unit": "µg/mL"}, {"measurement": "GI50", "setting": "SF-268 CNS", "value": 102, "unit": "µg/mL"}, {"measurement": "TGI", "setting": "SF-268 CNS", "value": "> 150", "unit": "µg/mL"}, {"measurement": "GI50", "setting": "MDA-MB-435", "value": "> 150", "unit": "µg/mL"}, {"measurement": "TGI", "setting": "MDA-MB-435", "value": "> 150", "unit": "µg/mL"}]}
{"smiles": "CC(=O)Nc1ccc(C(=O)NN2C(=O)C(Cl)/C2=C/c2ccco2)cc1", "note": "(stereo not given)", "values": [{"measurement": "TGI", "setting": "NCI-H23 lung", "value": "> 100", "unit": "µM"}, {"measurement": "TGI", "setting": "NCI-H522 lung", "value": "> 100", "unit": "µM"}, {"measurement": "TGI", "setting": "UACC-257 melanoma", "value": "> 100", "unit": "µM"}, {"measurement": "TGI", "setting": "MALME-3M melanoma", "value": "> 100", "unit": "µM"}, {"measurement": "TGI", "setting": "RPMI-8226 leukemia", "value": "> 100", "unit": "µM"}, {"measurement": "TGI", "setting": "HCT-116 colon", "value": "> 100", "unit": "µM"}, {"measurement": "TGI", "setting": "SR leukemia", "value": "> 100", "unit": "µM"}, {"measurement": "TGI", "setting": "M19-MEL melanoma", "value": "> 100", "unit": "µM"}, {"measurement": "TGI", "setting": "SK-MEL-5 melanoma", "value": "> 100", "unit": "µM"}, {"measurement": "TGI", "setting": "SF-268 CNS", "value": "> 100", "unit": "µM"}]}
